28 compounds from patent US9663508B2, “Biaryl acyl-sulfonamide compounds as sodium channel inhibitors” (AMGEN INC., priority 2013, dated 2017) can be followed below.

The structures appear in SMILES notation. Read-outs that look alike come from different tables or passages of the source. Bounds are passed on as bounds.

One data set addresses human Nav1.7 (Homo sapiens (Human), UniProt Q15858). As to the kind of experiment: Nav 1.7 in vitro PatchXpress (PX) assay. Type of data set: cell-based.
A further data set has as its target human Nav 1.5 (Homo sapiens (Human), UniProt Q14524). As to the kind of experiment: Nav 1.5 IonWorks Quattro (IWQ) in vitro assay. The data set is classed as cell-based. On the technique in general: The patch-clamp technique gives a direct electrical read-out from membranes.
Where [1] appears, read: in-vitro Nav 1.5 IWQ data, read-out: NAV 1.5 IWQ (IC50).
The mark [2] stands for this setting: human, HEK 293 cells stably transfected with human Nav 1.5, in-vitro Nav 1.5 IWQ data, read-out: NAV 1.5 IWQ (IC50).

A word on the IC50: it is the midpoint of a concentration-inhibition curve.

Sequence of human Nav1.7 (Q15858 whole entry): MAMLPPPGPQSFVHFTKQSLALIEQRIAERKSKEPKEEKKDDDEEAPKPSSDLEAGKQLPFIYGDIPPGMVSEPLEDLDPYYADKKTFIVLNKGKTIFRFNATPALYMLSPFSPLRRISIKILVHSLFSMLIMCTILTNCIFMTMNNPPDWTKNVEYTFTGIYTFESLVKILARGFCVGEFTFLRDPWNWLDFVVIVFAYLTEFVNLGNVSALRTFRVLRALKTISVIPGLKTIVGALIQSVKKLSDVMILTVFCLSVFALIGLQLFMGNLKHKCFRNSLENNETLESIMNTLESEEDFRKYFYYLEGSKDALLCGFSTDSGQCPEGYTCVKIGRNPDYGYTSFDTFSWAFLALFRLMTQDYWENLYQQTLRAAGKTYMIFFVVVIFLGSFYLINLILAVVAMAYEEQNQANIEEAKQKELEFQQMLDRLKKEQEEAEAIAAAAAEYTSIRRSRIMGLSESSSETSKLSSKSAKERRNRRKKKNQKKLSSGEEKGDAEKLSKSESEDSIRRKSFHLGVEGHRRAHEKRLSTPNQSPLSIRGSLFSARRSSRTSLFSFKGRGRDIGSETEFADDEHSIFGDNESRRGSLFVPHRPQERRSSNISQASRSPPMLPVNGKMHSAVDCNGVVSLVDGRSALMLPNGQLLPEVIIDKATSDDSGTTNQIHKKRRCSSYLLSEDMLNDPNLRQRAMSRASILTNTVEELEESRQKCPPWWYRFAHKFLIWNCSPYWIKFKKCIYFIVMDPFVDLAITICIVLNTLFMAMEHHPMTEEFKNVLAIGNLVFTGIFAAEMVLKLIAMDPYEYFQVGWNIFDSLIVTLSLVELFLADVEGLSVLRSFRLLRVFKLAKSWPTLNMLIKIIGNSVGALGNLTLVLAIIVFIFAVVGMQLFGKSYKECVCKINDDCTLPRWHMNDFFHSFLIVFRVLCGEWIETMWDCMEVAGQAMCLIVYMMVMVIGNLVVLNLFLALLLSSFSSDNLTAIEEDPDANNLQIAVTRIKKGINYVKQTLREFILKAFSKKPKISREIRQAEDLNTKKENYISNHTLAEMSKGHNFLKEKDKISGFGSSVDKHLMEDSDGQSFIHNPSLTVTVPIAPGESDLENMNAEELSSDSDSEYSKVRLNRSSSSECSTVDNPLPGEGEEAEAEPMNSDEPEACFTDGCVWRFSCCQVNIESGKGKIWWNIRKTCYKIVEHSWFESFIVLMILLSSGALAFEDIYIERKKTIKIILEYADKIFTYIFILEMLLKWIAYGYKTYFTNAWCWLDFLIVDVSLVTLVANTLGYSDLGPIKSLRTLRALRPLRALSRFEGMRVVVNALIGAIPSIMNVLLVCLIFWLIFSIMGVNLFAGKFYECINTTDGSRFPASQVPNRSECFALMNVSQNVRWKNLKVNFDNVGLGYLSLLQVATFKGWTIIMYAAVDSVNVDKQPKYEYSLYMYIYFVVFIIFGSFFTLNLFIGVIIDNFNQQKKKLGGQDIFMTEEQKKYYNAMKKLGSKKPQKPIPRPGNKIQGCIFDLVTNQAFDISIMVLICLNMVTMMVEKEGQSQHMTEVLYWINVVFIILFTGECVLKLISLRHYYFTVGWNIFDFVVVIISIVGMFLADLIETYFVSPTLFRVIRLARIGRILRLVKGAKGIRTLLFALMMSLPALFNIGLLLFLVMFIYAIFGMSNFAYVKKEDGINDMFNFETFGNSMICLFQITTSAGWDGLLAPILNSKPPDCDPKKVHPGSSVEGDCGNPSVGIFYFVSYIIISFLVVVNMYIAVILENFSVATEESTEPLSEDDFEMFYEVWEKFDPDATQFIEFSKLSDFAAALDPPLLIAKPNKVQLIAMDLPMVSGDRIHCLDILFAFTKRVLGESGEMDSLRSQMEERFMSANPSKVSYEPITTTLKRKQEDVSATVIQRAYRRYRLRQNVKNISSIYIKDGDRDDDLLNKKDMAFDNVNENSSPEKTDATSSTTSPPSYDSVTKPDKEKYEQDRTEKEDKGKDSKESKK
Sequence of human Nav 1.5 (Q14524 whole entry): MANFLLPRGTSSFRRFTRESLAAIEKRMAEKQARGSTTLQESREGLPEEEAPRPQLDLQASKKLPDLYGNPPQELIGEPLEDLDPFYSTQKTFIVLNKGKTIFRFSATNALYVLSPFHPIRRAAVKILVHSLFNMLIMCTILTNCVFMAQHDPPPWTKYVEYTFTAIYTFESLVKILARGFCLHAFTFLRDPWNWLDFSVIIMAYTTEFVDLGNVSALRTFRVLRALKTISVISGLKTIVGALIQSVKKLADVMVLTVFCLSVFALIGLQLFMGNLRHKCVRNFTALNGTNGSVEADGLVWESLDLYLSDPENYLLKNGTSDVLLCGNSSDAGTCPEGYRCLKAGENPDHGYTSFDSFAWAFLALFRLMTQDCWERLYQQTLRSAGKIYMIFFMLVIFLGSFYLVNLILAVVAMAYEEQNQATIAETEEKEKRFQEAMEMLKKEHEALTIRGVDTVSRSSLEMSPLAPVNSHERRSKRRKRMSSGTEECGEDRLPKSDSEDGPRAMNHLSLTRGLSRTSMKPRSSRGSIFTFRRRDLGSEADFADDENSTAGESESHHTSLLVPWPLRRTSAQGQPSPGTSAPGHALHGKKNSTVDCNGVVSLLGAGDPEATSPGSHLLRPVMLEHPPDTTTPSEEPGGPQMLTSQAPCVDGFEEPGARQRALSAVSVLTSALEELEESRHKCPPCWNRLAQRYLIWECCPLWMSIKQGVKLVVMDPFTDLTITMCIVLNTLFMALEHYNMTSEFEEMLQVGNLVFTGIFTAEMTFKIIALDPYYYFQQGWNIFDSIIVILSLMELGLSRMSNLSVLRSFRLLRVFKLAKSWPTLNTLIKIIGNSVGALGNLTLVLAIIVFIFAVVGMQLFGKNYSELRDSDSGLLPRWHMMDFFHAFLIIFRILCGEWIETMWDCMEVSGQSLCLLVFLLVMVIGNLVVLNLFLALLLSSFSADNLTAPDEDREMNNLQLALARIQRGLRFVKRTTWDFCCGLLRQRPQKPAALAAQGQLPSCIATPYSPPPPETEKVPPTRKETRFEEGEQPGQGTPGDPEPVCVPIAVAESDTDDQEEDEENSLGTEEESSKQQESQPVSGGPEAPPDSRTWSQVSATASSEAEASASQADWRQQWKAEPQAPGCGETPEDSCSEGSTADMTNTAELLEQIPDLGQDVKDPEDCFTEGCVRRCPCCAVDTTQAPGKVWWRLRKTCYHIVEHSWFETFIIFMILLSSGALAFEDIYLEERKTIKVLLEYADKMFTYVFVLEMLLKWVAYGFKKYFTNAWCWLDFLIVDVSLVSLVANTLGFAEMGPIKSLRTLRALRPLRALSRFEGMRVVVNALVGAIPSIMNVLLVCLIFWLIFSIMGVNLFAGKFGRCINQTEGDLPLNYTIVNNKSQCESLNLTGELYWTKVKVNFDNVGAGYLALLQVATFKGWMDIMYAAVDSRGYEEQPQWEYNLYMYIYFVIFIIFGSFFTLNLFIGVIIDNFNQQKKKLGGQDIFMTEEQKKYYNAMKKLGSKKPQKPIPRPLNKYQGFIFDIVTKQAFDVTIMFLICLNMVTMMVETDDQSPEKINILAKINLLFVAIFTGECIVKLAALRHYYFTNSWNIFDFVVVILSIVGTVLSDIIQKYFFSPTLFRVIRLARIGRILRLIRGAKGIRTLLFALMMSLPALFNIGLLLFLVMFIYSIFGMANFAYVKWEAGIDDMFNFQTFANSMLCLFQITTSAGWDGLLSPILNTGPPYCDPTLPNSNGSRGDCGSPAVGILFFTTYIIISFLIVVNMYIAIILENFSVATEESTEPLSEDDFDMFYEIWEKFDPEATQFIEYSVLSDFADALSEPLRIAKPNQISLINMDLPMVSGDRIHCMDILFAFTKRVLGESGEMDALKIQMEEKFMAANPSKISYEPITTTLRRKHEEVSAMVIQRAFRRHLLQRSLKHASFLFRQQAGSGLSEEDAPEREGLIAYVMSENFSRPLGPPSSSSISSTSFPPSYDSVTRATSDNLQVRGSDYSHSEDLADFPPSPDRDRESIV
Experimental for human Nav 1.5: Nav 1.7 or Nav 1.5 Ion Works Quattro (IWQ) In Vitro Assay
HEK 293 Cells stably transfected with either human Nay 1.7 or human Nay 1.5 were recorded in population patch-clamp mode with the IonWorks® Quattro automated electrophysiology system in accordance with the manufacturer's specifications (Molecular Devices, LLC, Sunnyvale, Calif.). Sodium channel currents were measured in response to a train of depolarizations that induced successively greater inactivation.
Cells were held at −110 mV for three seconds (Nav 1.7) or half a second (Nav 1.5) from a holding voltage of −15 mV, then put through a series of 26 pulses of 150 msec duration to −20 mV at a frequency of 5 Hz. Cells were then left unclamped for a period of 3 to 8 minutes while a single concentration of test compound was added. Cells were then reclamped and put through the same voltage protocol. Current at the end of the 26th pulse to −20 mV was subtracted from the peak current evoked by the 26th pulse to −20 mV to correct for leak current. Percent block was calculated for each concentration in duplicate, and IC50 curves were fitted to percent block as a function of concentration.

With `Cc1cc(C(=O)NS(C)(=O)=O)c(F)cc1-c1cnc(Oc2c(C)cc(Cl)cc2Cl)c(Cl)c1` [Example 628, 4-(5-chloro-6-(2,4-dichloro-6-methylphenoxy)-3-pyridinyl)-2-fluoro-5-methyl-N-(methylsulfonyl)benzamide], the values for the IC50 at human Nav1.7 and at human Nav 1.5 (read-out: NAV 1.5 IWQ IC50) were 56 nM and 2190 nM, respectively.

`Cc1cc(C(=O)NS(=O)(=O)C2CC2)c(F)cc1-c1cnc(Oc2c(C)cc(Cl)cc2Cl)c(Cl)c1` [Example 801, 4-(5-chloro-6-(2,4-dichloro-6-methylphenoxy)-3-pyridinyl)-N-(cyclopropylsulfonyl)-2-fluoro-5-methylbenzamide]: the IC50 at human Nav1.7 (in-vitro Nav 1.7 PX data) stood at 56.2 nM; at human Nav 1.5 (setting [1]), 485 nM.

In the case of `Cc1cc(C(=O)NS(C)(=O)=O)c(F)cc1-c1cnc(OCc2nc3ccccc3s2)c(Cl)c1` [Example 636, 4-(6-(1,3-benzothiazol-2-ylmethoxy)-5-chloro-3-pyridinyl)-2-fluoro-5-methyl-N-(methylsulfonyl)benzamide], the figures for the IC50 against human Nav1.7 and at human Nav 1.5 (read-out: NAV 1.5 IWQ IC50) were 55.7 nM and more than 3000 nM, respectively.

As for `Cc1cc(C(=O)NS(C)(=O)=O)c(F)cc1-c1cnc(Oc2c(F)cc(F)cc2Cl)c(Cl)c1` [Example 666, 4-(5-chloro-6-(2-chloro-4,6-difluorophenoxy)-3-pyridinyl)-2-fluoro-5-methyl-N-(methylsulfonyl)benzamide], the IC50 turned out to be 49.7 nM at human Nav1.7 and 3410 nM on human Nav 1.5 (read-out: NAV 1.5 IWQ IC50).

As to `CS(=O)(=O)NC(=O)c1cc(Cl)c(-c2cnc(Oc3cc(F)ccc3Cl)c(Cl)c2)cc1F` [Example 595, 5-chloro-4-(5-chloro-6-(2-chloro-5-fluorophenoxy)-3-pyridinyl)-2-fluoro-N-(methylsulfonyl)benzamide], the IC50 was 81.4 nM against human Nav1.7 and more than 3000 nM at human Nav 1.5 (read-out: NAV 1.5 IWQ IC50).

In the case of `CS(=O)(=O)NC(=O)c1cc(Cl)c(-c2cnc(Oc3cc(F)cc(F)c3Cl)c(Cl)c2)cc1F` [Example 599, 5-chloro-4-(5-chloro-6-(2-chloro-3,5-difluorophenoxy)-3-pyridinyl)-2-fluoro-N-(methylsulfonyl)benzamide], the values for the IC50 on human Nav1.7 and at human Nav 1.5 (read-out: NAV 1.5 IWQ IC50) were 62.7 nM and more than 3000 nM, respectively.

As for `Cc1cc(C(=O)NS(C)(=O)=O)c(F)cc1-c1cnc(O[C@H](C)C2CCC2)c(Cl)c1` [Example 641, 4-(5-chloro-6-((1R)-1-cyclobutylethoxy)-3-pyridinyl)-2-fluoro-5-methyl-N-(methylsulfonyl)benzamide, 4-(5-chloro-6-((1S)-1-cyclobutylethoxy)-3-pyridinyl)-2-fluoro-5-methyl-N-(methylsulfonyl)benzamide], the IC50 against human Nav1.7 was found to be 111 nM; on human Nav 1.5 (read-out: NAV 1.5 IWQ IC50), 9320 nM.

With `CC[C@H](Oc1ncc(-c2cc(F)c(C(=O)NS(C)(=O)=O)cc2C)cc1Cl)c1ccc(F)cc1` [Example 651, 4-(5-chloro-6-(((1S)-1-(4-fluorophenyl)propyl)oxy)-3-pyridinyl)-2-fluoro-5-methyl-N-(methylsulfonyl)benzamide], the IC50 against human Nav1.7 is 73.5 nM; at human Nav 1.5 (read-out: NAV 1.5 IWQ IC50), more than 3000 nM.

For the compound `COc1cc(C(=O)NS(C)(=O)=O)c(F)cc1-c1cnc(Oc2ccc(F)c(F)c2F)c(Cl)c1` [Example 701, 4-(5-chloro-6-(2,3,4-trifluorophenoxy)-3-pyridinyl)-2-fluoro-5-methoxy-N-(methylsulfonyl)benzamide], the IC50 on human Nav1.7 is 70.6 nM; at human Nav 1.5 (read-out: NAV 1.5 IWQ IC50), more than 3000 nM.

`Cc1cc(C(=O)NS(C)(=O)=O)c(F)cc1-c1cnc(Oc2c(Cl)cc(F)cc2Cl)c(Cl)c1` [Example 644, 4-(5-chloro-6-(2,6-dichloro-4-fluorophenoxy)-3-pyridinyl)-2-fluoro-5-methyl-N-(methylsulfonyl)benzamide]: the IC50 against human Nav1.7 is 82.8 nM; on human Nav 1.5 (read-out: NAV 1.5 IWQ IC50) it was more than 3000 nM.

Take `COc1cc(C(=O)NS(C)(=O)=O)c(F)cc1-c1cnc(O[C@H](C)c2ccccc2)c(Cl)c1` [Example 696, 4-(5-chloro-6-((1R)-1-phenylethoxy)-3-pyridinyl)-2-fluoro-5-methoxy-N-(methylsulfonyl)benzamide, 4-(5-chloro-6-((1S)-1-phenylethoxy)-3-pyridinyl)-2-fluoro-5-methoxy-N-(methylsulfonyl)benzamide]: the IC50 against human Nav1.7 was 93 nM; at human Nav 1.5 (read-out: NAV 1.5 IWQ IC50), more than 3000 nM.

With `COc1cc(C(=O)NS(C)(=O)=O)ccc1-c1cnc(Oc2c(C)cc(Cl)cc2Cl)c(C#N)c1` [Example 689, 4-(5-cyano-6-(2,4-dichloro-6-methylphenoxy)-3-pyridinyl)-3-methoxy-N-(methylsulfonyl)benzamide], the IC50 is 28.4 nM against human Nav1.7 and 1000 nM at human Nav 1.5 (read-out: NAV 1.5 IWQ IC50).

For `Cc1cc(C(=O)NS(C)(=O)=O)c(F)cc1-c1cnc(Oc2ccccc2-c2ccccc2)c(Cl)c1` [Example 612, 4-(6-(2-biphenylyloxy)-5-chloro-3-pyridinyl)-2-fluoro-5-methyl-N-(methylsulfonyl)benzamide], the IC50 is 88.3 nM against human Nav1.7 and more than 3000 nM at human Nav 1.5 (read-out: NAV 1.5 IWQ IC50).

For `COc1cc(C(=O)NS(C)(=O)=O)c(F)cc1-c1cnc(OCc2nc3ccccc3s2)c(Cl)c1` [Example 708, 4-(6-(1,3-benzothiazol-2-ylmethoxy)-5-chloro-3-pyridinyl)-2-fluoro-5-methoxy-N-(methylsulfonyl)benzamide], the figures for the IC50 against human Nav1.7 (in-vitro Nav 1.7 PX data) and on human Nav 1.5 (setting [1]) were 32.6 nM and more than 3000 nM, respectively.

For `Cc1cc(C(=O)NS(C)(=O)=O)c(F)cc1-c1cnc(O[C@@H](C)c2nc3ccccc3s2)c(Cl)c1` [Example 710, 4-(6-((1S)-1-(1,3-benzothiazol-2-yl)ethoxy)-5-chloro-3-pyridinyl)-2-fluoro-5-methyl-N-(methylsulfonyl)benzamide], the 50% inhibitory concentration (IC50) on human Nav1.7 (in-vitro Nav 1.7 PX data) is 87.3 nM; on human Nav 1.5 (setting [1]) it was more than 3000 nM.

As for `Cc1cc(C(=O)NS(C)(=O)=O)c(F)cc1-c1cnc(Oc2ccc(C(C)(C)C)cc2Cl)c(Cl)c1` [Example 611, 4-(6-(4-tert-butyl-2-chlorophenoxy)-5-chloro-3-pyridinyl)-2-fluoro-5-methyl-N-(methylsulfonyl)benzamide], the IC50 on human Nav1.7 is 76.1 nM; on human Nav 1.5 (read-out: NAV 1.5 IWQ IC50) it was more than 3000 nM.

On to `COc1cc(C(=O)NS(C)(=O)=O)ccc1-c1cc(Cl)nc(Oc2cc(Cl)cc(Cl)c2)c1` [Example 803, 4-(2-chloro-6-(3,5-dichlorophenoxy)-4-pyridinyl)-3-methoxy-N-(methylsulfonyl)benzamide], for which the IC50 on human Nav1.7 (in-vitro Nav 1.7 PX data) is 91.6 nM; on human Nav 1.5 (setting [1]) it was more than 3000 nM.

For `Cc1cc(C(=O)NS(C)(=O)=O)c(F)cc1-c1cnc(O[C@H](C)c2nc3ccccc3s2)c(Cl)c1` [Example 647, 4-(6-((1R)-1-(1,3-benzothiazol-2-yl)ethoxy)-5-chloro-3-pyridinyl)-2-fluoro-5-methyl-N-(methylsulfonyl)benzamide, 4-(6-((1S)-1-(1,3-benzothiazol-2-yl)ethoxy)-5-chloro-3-pyridinyl)-2-fluoro-5-methyl-N-(methylsulfonyl)benzamide], the IC50 against human Nav1.7 is 76 nM; at human Nav 1.5 (read-out: NAV 1.5 IWQ IC50), more than 3000 nM.

With `Cc1cc(Br)ccc1Oc1ncc(-c2cc(F)c(C(=O)NS(C)(=O)=O)cc2C)cc1Cl` [Example 614, 4-(6-(4-bromo-2-methylphenoxy)-5-chloro-3-pyridinyl)-2-fluoro-5-methyl-N-(methylsulfonyl)benzamide], the IC50 on human Nav1.7 is 68 nM; at human Nav 1.5 (read-out: NAV 1.5 IWQ IC50), more than 3000 nM.

Regarding `Cc1cc(C(=O)NS(C)(=O)=O)c(F)cc1-c1cnc(Oc2c(C)ccc3ccccc23)c(Cl)c1` [Example 608, 4-(5-chloro-6-((2-methyl-1-naphthalenyl)oxy)-3-pyridinyl)-2-fluoro-5-methyl-N-(methylsulfonyl)benzamide], the IC50 against human Nav1.7 is 48.1 nM; at human Nav 1.5 (read-out: NAV 1.5 IWQ IC50), more than 3000 nM.

For `Cc1ccc(Cl)cc1Oc1ncc(-c2cc(F)c(C(=O)NS(C)(=O)=O)cc2C)cc1Cl` [Example 616, 4-(5-chloro-6-(5-chloro-2-methylphenoxy)-3-pyridinyl)-2-fluoro-5-methyl-N-(methylsulfonyl)benzamide], the values for the IC50 on human Nav1.7 and at human Nav 1.5 (read-out: NAV 1.5 IWQ IC50) were 70.8 nM and more than 3000 nM, respectively.

In the case of `Cc1cc(C(=O)NS(C)(=O)=O)c(F)cc1-c1cnc(O[C@H](C)c2ccc(F)cc2Cl)c(Cl)c1` [Example 652, 4-(5-chloro-6-((1R)-1-(2-chloro-4-fluorophenyl)ethoxy)-3-pyridinyl)-2-fluoro-5-methyl-N-(methylsulfonyl)benzamide, 4-(5-chloro-6-((1S)-1-(2-chloro-4-fluorophenyl)ethoxy)-3-pyridinyl)-2-fluoro-5-methyl-N-(methylsulfonyl)benzamide], the IC50 was 66.4 nM at human Nav1.7 and more than 3000 nM on human Nav 1.5 (read-out: NAV 1.5 IWQ IC50).

Turning to `Cc1cc(C(=O)NS(C)(=O)=O)c(F)cc1-c1cnc(OCCC(C)C)c(Cl)c1` [Example 637, 4-(5-chloro-6-(3-methylbutoxy)-3-pyridinyl)-2-fluoro-5-methyl-N-(methylsulfonyl)benzamide], the IC50 is 87.7 nM against human Nav1.7 and more than 3000 nM at human Nav 1.5 (read-out: NAV 1.5 IWQ IC50).

For the compound `Cc1cc(Cl)ccc1Oc1ncc(-c2cc(F)c(C(=O)NS(C)(=O)=O)cc2C)cc1Cl` [Example 620, 4-(5-chloro-6-(4-chloro-2-methylphenoxy)-3-pyridinyl)-2-fluoro-5-methyl-N-(methylsulfonyl)benzamide], the half-maximal inhibitory concentration (IC50) is 76.1 nM against human Nav1.7 and more than 3000 nM on human Nav 1.5 (read-out: NAV 1.5 IWQ IC50).

As for `Cc1cc(C(=O)NS(C)(=O)=O)c(F)cc1-c1cnc(O[C@H](C)c2cc(Cl)ccc2Cl)c(Cl)c1` [Example 673, 4-(5-chloro-6-((1R)-1-(2,5-dichlorophenyl)ethoxy)-3-pyridinyl)-2-fluoro-5-methyl-N-(methylsulfonyl)benzamide], at human Nav 1.5 (read-out: NAV 1.5 IWQ IC50), the concentration for half-maximal inhibition (IC50) is more than 10000 nM.

Take `C[C@@](Oc1ncc(-c2cc(F)c(C(=O)NS(C)(=O)=O)cc2F)cc1Cl)(c1ccccc1)C(F)(F)F` (single isomer, unassigned) [Example 804]: the IC50 at human Nav 1.5 (setting [2]) is more than 3000 nM.

On to `C[C@](Oc1ncc(-c2cc(F)c(C(=O)NS(C)(=O)=O)cc2F)cc1Cl)(c1ccccc1)C(F)(F)F` (single isomer, unassigned) [Example 805], for which the 50% inhibitory concentration (IC50) on human Nav 1.5 (setting [2]) was more than 3000 nM.

Take `C[C@@H](Oc1ncc(-c2cc(F)c(C(=O)NS(C)(=O)=O)cc2F)cc1Cl)c1ccc(F)cc1F` [Example 574, 4-(5-chloro-6-((1R)-1-(2,4-difluorophenyl)ethoxy)-3-pyridinyl)-2,5-difluoro-N-(methylsulfonyl)benzamide]: on human Nav1.7, the IC50 came to 88.8 nM.
